Test system: EGFR kinases (all the variants tested)
Test: In vitro binding assay (ATP beads), all variant EGFR kinases
Details: at a concentration of 1000 μM

binding of exogenous ATP to EGFR kinases: weakly bound
Structure (SMILES): Nc1ncnc2c1ncn2[C@@H]1O[C@H](COP(=O)(O)OP(=O)(O)OP(=O)(O)O)[C@@H](O)[C@H]1O [ATP]

— paper PMC4474554 (PLoS ONE, 2015)
